Target: T1, 3-hydroxy-methylglutaryl CoA reductase (HMGCR) (Homo sapiens, UniProt P04035)
T1 sequence (P04035 1-888): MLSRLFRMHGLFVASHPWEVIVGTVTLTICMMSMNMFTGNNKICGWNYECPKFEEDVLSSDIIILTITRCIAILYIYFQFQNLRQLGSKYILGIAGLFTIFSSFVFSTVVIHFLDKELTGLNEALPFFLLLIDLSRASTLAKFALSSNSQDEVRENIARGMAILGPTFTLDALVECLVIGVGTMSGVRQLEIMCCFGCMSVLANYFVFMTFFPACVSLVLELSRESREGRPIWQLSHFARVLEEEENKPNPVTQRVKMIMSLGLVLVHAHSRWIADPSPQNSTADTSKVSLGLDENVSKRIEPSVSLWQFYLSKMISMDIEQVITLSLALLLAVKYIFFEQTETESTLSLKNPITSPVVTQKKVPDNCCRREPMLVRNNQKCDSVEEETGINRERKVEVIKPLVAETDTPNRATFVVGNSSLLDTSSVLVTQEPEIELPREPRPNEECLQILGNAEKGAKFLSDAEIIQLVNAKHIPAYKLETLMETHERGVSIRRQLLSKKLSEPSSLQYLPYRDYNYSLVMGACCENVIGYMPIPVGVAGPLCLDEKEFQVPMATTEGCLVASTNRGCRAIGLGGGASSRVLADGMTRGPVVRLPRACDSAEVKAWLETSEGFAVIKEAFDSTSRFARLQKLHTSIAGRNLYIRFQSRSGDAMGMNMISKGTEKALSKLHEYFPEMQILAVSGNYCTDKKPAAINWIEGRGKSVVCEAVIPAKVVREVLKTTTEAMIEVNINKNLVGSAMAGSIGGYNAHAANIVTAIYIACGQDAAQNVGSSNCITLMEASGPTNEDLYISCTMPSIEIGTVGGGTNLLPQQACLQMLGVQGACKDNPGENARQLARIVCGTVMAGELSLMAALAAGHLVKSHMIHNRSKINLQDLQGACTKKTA
Experiment: SPR direct binding assay (PB listed as stationary phase)

In the case of CC(=O)O[C@H]1CC([C@H](C)C2CC(C)=C(C)C(=O)O2)[C@@]2(C)CCC3C(C[C@H]4O[C@]45[C@@H](O)C=CC(=O)[C@]35C)[C@]12O (stereo partly shown) [PB, Physapubenolide], the Kd is reported as 1.46 µM.

— publication PMC9160031, “Identification of HMGCR as the anticancer target of physapubenolide against melanoma cells by in silico target prediction” (Acta Pharmacologica Sinica, 2021)
